Measured values taken from patent US9945862B2, “Biomarkers for predicting and assessing responsiveness of thyroid and kidney cancer subjects to lenvatinib compounds” (Eisai R&D Management Co., Ltd., priority 2011, dated 2018).

Legend:
[1] = tested on: thyroid, kidney and endometrial cancers, as well as melanoma; conditions: phase I; cited from earlier work
thyroglobulin = assay: Serum thyroglobulin, chemiluminescent immunometric assay (IMMULITE 2000), pre- and post-treatment with E7080; assay type: in vivo, human
Description: The serum for the thyroglobulin assays was collected within 72 hours prior to Day 1 of all cycles. 24 mg of E7080 was administered orally, daily continuously in 28-day cycles. Serum samples from 58 patients were used for thyroglobulin measurements. 6 mL of blood was drawn into red top tubes and let to clot at room temperature for at least 30 min. Within 60 minutes of sample collection, the tubes were centrifuged for 15 minutes at 20-25° C. at 1000×g. The supernatant was drawn without disturbing the pellet, put into sample tubes with serum filter and shipped frozen to the central lab for testing on the day of collection. The level of thyroglobulin was detected by a solid-phase, chemiluminescent immunometric assay (IMMULITE 2000 Thyroglobulin Assay System, Siemens) following standard operating procedure. In brief, serum thyroglobulin was captured by beads coated with anti-thyroglobulin antibody and detected using anti-thyroglobulin antibody linked to alkaline phosphatase. The level of serum thyroglobulin was calculated from a standard curve generated with lyophilized thyroglobulin. Serum thyroglobulin was stable for up to 2 months when stored frozen for the assay. The sensitivity of this assay was 0.2 ng/ml. From 58 patient samples, 50 pre- and post-treatment blood samples at maximum were used for these analyses. Dramatic changes in thyroglobulin levels were observed 29 days after the start of treatment with E7080.

**Q.** With `COc1cc2nccc(Oc3ccc(NC(=O)NC4CC4)c(Cl)c3)c2cc1C(N)=O` [E7080, 4-(3-chloro-4-(cyclopropylaminocarbonyl)aminophenoxy)-7-methoxy-6-quinolinecarboxamide] as the compound, how does the Clinical response [1] read?
**A.** response to treatment was observed

**Q.** What about the “Thyroglobulin level ratio (median), Other group (SD or PD)” value (“Thyroglobulin level ratio … (SD or PD)” below) (thyroglobulin; CYCLE2 DAY 1/CYCLE1 DAY 1) of the same compound?
**A.** 0.288

**Q.** And the “Thyroglobulin level ratio (median), PR group” value (thyroglobulin; CYCLE2 DAY 1/CYCLE1 DAY 1)?
**A.** 0.195

**Q.** And the “Thyroglobulin level ratio … (SD or PD)” value (thyroglobulin; CYCLE3 DAY 1/CYCLE1 DAY 1)?
**A.** 0.221

**Q.** And the “Thyroglobulin level ratio (median), PR group” value (thyroglobulin; CYCLE3 DAY 1/CYCLE1 DAY 1)?
**A.** 0.109

**Q.** And the “Thyroglobulin level ratio … (SD or PD)” value (thyroglobulin; CYCLE4 DAY 1/CYCLE1 DAY 1)?
**A.** 0.227

**Q.** And the “Thyroglobulin level ratio (median), PR group” value (thyroglobulin; CYCLE4 DAY 1/CYCLE1 DAY 1)?
**A.** 0.079

**Q.** And the “Thyroglobulin level ratio … (SD or PD)” value (thyroglobulin; CYCLE5 DAY 1/CYCLE1 DAY 1)?
**A.** 0.332

**Q.** What about the “Thyroglobulin level ratio (median), PR group” value (thyroglobulin; CYCLE5 DAY 1/CYCLE1 DAY 1) of the same compound?
**A.** 0.106

**Q.** What about the “Thyroglobulin level ratio … (SD or PD)” value (thyroglobulin; CYCLE6 DAY 1/CYCLE1 DAY 1) of the same compound?
**A.** 0.198

**Q.** And the “Thyroglobulin level ratio (median), PR group” value (thyroglobulin; CYCLE6 DAY 1/CYCLE1 DAY 1)?
**A.** 0.078
